The target of one test is T1, α2A receptor (Homo sapiens, UniProt P08913).
T1 construct: host or cells: LM(tk-) cells, line L-α2A
T1 sequence (P08913 1-465): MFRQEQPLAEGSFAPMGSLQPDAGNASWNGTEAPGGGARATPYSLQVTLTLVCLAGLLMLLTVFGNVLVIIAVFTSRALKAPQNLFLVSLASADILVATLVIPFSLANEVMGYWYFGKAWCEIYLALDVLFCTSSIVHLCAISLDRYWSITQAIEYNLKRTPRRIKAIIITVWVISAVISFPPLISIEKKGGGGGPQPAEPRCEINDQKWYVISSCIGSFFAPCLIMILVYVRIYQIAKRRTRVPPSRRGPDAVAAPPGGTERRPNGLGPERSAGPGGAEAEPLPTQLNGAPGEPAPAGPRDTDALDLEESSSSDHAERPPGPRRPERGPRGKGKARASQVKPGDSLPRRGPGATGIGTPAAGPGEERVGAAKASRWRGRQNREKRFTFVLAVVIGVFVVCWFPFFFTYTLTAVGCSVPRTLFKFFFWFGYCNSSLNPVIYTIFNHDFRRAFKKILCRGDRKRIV
Description: Competition binding, [3H]rauwolscine, human α2A receptor. In outline:
(§1)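 Filter-bound [3H]rauwolscine (0.5 nM) was measured after equilibrium competition with test antagonists on lysates of LM(tk−) cells stably transfected with each human α2 subtype. Buffer: 25 mM glycylglycine, pH 7.6 at room temperature; 10 μM phentolamine gave nonspecific binding.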

Another test has as its target T2, α2C receptor (Homo sapiens, UniProt P18825).
T2 construct: host or cells: LM(tk-) cells, line L-α2C
T2 sequence (P18825 1-462): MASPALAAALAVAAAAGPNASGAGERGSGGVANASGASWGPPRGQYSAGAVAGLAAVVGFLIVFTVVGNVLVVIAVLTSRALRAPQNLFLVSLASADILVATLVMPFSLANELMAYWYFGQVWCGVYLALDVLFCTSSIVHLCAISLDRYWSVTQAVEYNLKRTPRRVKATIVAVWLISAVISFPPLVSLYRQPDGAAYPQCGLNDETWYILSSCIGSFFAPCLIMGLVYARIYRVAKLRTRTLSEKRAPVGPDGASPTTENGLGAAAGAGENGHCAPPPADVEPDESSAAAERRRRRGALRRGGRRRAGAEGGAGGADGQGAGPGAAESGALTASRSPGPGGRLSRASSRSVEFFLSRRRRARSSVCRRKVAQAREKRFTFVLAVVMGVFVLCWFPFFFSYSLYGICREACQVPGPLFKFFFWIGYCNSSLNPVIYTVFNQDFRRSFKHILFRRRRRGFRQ
Description: Competition binding, [3H]rauwolscine, human α2C receptor. A digest of the protocol: as §1

The next test deals with T3, α2B receptor (Homo sapiens, UniProt P18089).
T3 construct: host or cells: LM(tk-) cells, line L-NGC-α2B
T3 sequence (P18089 1-450): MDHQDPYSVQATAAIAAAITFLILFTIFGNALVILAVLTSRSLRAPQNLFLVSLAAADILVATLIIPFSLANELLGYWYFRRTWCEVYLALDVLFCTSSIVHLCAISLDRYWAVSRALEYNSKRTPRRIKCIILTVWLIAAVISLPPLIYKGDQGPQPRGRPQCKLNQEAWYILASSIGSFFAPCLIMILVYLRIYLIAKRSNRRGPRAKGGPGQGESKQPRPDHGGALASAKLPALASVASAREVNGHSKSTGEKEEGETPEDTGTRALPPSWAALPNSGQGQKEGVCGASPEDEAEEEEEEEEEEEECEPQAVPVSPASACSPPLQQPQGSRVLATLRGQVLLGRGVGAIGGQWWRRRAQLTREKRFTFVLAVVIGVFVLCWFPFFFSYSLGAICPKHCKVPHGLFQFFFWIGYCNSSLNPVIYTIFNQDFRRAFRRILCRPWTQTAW
Description: Competition binding, [3H]rauwolscine, human α2B receptor. In outline:
as §1

Test [1] concerns the target T4, α1B Human Adrenergic Receptor (Homo sapiens, UniProt P35368).
T4 construct: The entire coding region of α1B (1563 bp); expressed in transfected cells
T4 sequence (P35368 1-520): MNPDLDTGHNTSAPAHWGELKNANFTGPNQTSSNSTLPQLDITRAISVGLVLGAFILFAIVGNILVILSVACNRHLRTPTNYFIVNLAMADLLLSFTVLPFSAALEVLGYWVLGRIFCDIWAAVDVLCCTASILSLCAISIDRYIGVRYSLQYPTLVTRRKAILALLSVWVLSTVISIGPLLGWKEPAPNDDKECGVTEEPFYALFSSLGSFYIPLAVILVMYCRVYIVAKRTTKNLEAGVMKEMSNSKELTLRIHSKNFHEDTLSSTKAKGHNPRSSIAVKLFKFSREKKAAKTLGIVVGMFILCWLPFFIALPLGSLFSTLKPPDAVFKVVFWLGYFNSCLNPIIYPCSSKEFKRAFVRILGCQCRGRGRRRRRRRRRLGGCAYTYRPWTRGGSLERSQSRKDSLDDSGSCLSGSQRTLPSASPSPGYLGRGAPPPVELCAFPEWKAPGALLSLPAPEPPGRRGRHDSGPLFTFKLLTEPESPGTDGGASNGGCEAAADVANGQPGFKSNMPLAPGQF
Description: Radioligand binding, [3H]prazosin, cloned human α1B adrenergic receptor. In outline: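 Membranes from stably transfected LM(tk−) cells, resuspended in 50 mM Tris-HCl, 1 mM MgCl2, 0.1% ascorbic acid, pH 7.5, were incubated with 0.5 nM [3H]prazosin for 20 min at 37° C. Nonspecific binding defined with 10 μM phentolamine; bound ligand separated by GF/B filtration.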

Where [2] appears, read: [3H]rauwolscine, human α2A receptor, LM(tk−) cells, read-out: pKi alpha-2 2a (converted).
Setting [3] is: [3H]rauwolscine, human α2C receptor, LM(tk−) cells, read-out: pKi alpha-2 2c (converted).
Where [4] appears, read: [3H]rauwolscine, human α2B receptor, LM(tk−) cells, read-out: pKi alpha-2 2b (converted).
[5] abbreviates: cloned human α1B receptor, LM(tk−) cell membranes, read-out: pKi alpha-1 1b (converted).
[6] abbreviates: [3H]rauwolscine, human α2A receptor, LM(tk-) cells, read-out: PKi alpha-2 2a (converted).
The mark [7] stands for this setting: [3H]rauwolscine, human α2C receptor, LM(tk-) cells, read-out: PKi alpha-2 2c (converted).
The mark [8] stands for this setting: [3H]rauwolscine, LM(tk-) cell line L-α2A, SEM and n in lines below, read-out: pKi alpha-2 2a (converted).
Where [9] appears, read: [3H]rauwolscine, LM(tk-) cell line L-α2C, SEM and n in lines below, read-out: pKi alpha-2 2c (converted).
Where [10] appears, read: [3H]rauwolscine, LM(tk-) cell line L-NGC-α2B, SEM and n in lines below, read-out: pKi alpha-2 2b (converted).
Where [11] appears, read: cloned human receptor in LM(tk-) cell membranes, SEM and n in lines below, read-out: pKi alpha-1 1b (converted).
Where [12] appears, read: [3H]rauwolscine, human receptor, LM(tk-) cell lysates, mean.

Counter-ions that a name gives are not always drawn. Like-named read-outs stand apart in the source and are kept apart here.

As for `CCC1=C(C(N)=O)C(c2ccc([N+](=O)[O-])cc2)C(C(=O)NCCCN2CCN(c3ccccc3)CC2)=C(CC)N1` (stereo not shown) [Example 104, 5-Carboxamido-2,6-diethyl-1,4-dihydro-4-(4-nitrophenyl)-3-{N-[3-(4-phenylpiperazin-1-yl)propyl]}carboxamido-pyridine hydrochloride hydrate], the Ki on α2A receptor (setting [2]) is 5.25 nM; at α2C receptor (setting [3]), 15.8 nM; on α2B receptor (setting [4]), 56.2 nM; in test [1] (setting [5]), 34.7 nM.

Turning to `CNC(=O)C1=C(C)NC(C)=C(C(=O)NCCCN2CCC(c3ccccc3)(c3ccccc3)CC2)C1c1ccc2c(c1)OCCO2` (stereo not shown) [Example 163], the Ki is 1170 nM at α2A receptor ([3H]rauwolscine, human receptor, LM(tk-) cell lysates, mean, read-out: PKi alpha-2 2a (converted)); 1230 nM at α2C receptor (PKi alpha-2 2c, [3H]rauwolscine, human receptor, LM(tk-) cell lysates, mean); 1700 nM on α2B receptor (PKi alpha-2 2b, [3H]rauwolscine, human receptor, LM(tk-) cell lysates, mean); 1020 nM in test [1] (PKi alpha-1 1b, cloned human receptor, LM(tk-) cell membranes, mean).

As for `CCOC(=O)C1(c2ccccc2)CCN(CCCNC(=O)C2=C(COCCN)NC(C)=C(C(C)=O)C2c2ccc3c(c2)OCO3)CC1` (stereo not shown) [Example 244, 5-Acetyl-2-((2-aminoethyl)oxy)methyl-3-(N-(3-(4-ethoxycarbonyl-4-phenylpiperidin-1-yl)propyl)) carboxamido-1,4-dihydro-6-methyl-4-(3,4-methylenedioxy) phenylpyridine], the Ki on α2A receptor (setting [6]) was 1020 nM; on α2C receptor (setting [7]), 97.7 nM; on α2B receptor ([3H]rauwolscine, human α2B receptor, LM(tk-) cells, read-out: PKi alpha-2 2b (converted)) it was 2140 nM; in test [1] (cloned human α1B receptor, LM(tk-) cell membranes, read-out: PKi alpha-1 1b (converted)), 513 nM.

Take `COC(=O)C1=C(C)NC(C)=C(C(=O)NCCCN2CCC(c3ccccc3)CC2)C1c1ccc(Cl)c([N+](=O)[O-])c1` (stereo not shown) [Example 17, 4-(4-Chloro-3-nitrophenyl)-1,4-dihydro-3-methoxycarbonyl-2,6-dimethyl-5-(N-(3-(4-phenylpiperidin-1-yl)propyl)carboxamido)pyridine]: the Ki was 347 nM at α2A receptor (setting [8]), 26.9 nM at α2C receptor (setting [9]), 141 nM at α2B receptor (setting [10]) and 41.7 nM in test [1] (setting [11]).

In the case of `CNC(=O)C1=C(C)NC(C)=C(C(=O)NCCCN2CCC(c3ccccc3)(c3ccccc3)CC2)C1c1ccc([N+](=O)[O-])cc1` (racemic) [(±)-119, 1,4-Dihydro-2,6-dimethyl-5-(N-Methyl) carboxamido-4-(4-nitrophenyl)-3-{N-[3-(4,4-diphenylpiperidin-1-yl)propyl]}carboxamidopyridine], the “pKi alpha-2 2a” value at α2A receptor stood at 6.4. Further, the “pKi alpha-2 2c” value at α2C receptor amounted to 6.49. Moreover, the “pKi alpha-2 2b” value at α2B receptor is 6.04. In addition, the “pKi alpha-1 1b” value in test [1] (cloned human α1B receptor, LM(tk−) cell membranes) is on record as 6.38.

For the compound `COc1ccccc1N1CCN(CCCNC(=O)C2=C(C)NC(C)=C(C(N)=O)C2c2ccc([N+](=O)[O-])cc2)CC1` (stereo not shown) [Example 124], the Ki on α2A receptor (setting [2]) was 22.4 nM; on α2C receptor (setting [3]) it was 44.7 nM; on α2B receptor (setting [4]), 200 nM; in test [1] (setting [5]), 89.1 nM.

`COC(=O)C1=C(C)NC(C)=C(C(=O)NCCCN2CCC(c3ccccc3)CC2)C1c1ccc([N+](=O)[O-])cc1` (racemic) [(±)-45, (±)-1,4-Dihydro-3-methoxycarbonyl-2,6-dimethyl-4-(4-nitrophenyl)-5-{N-[3-(4-phenylpiperidin-1-yl)propyl]}carboxamidopyridine hydrochloride hemihydrate]: the Ki was 282 nM on α2A receptor (setting [8]), 81.3 nM on α2C receptor (setting [9]), 214 nM on α2B receptor (setting [10]) and 13.5 nM in test [1] (setting [11]).

Regarding `CCC1=C(C(=O)OCCO)C(c2ccc([N+](=O)[O-])cc2)C(C(=O)NCCCN2CCC(c3ccccc3)(c3ccccc3)CC2)=C(COC)N1` (stereo not shown) [Example 246], the Ki on α2A receptor (setting [6]) is 676 nM; on α2C receptor (setting [7]), 2400 nM; on α2B receptor (PKi alpha-2 2b, [3H]rauwolscine, human α2B receptor, LM(tk-) cells) it was 309 nM; in test [1] (PKi alpha-1 1b, cloned human α1B receptor, LM(tk-) cell membranes), 174 nM.

In the case of `CCC1=C(C(=O)NCCCN2CCc3cc(OC)c(OC)cc3C2)C(c2ccc([N+](=O)[O-])cc2)C(C(N)=O)=C(C)N1.Cl.O` (stereo not shown) [Example 76, 5-Carboxamido-2-ethyl-1,4-dihydro-3-(N-(3-(1,2,3,4-tetrahydro-6,7-dimethoxyisoquinolin-2-yl)propyl)) carboxamido-6-methyl-4-(4-nitro)phenylpyridine hydrochloride hydrate], the “pKi alpha-2 2a” value at α2A receptor ([3H]rauwolscine, LM(tk-) cell line L-α2A, SEM and n in lines below) was 6.96. For the same compound, the “pKi alpha-2 2c” value at α2C receptor ([3H]rauwolscine, LM(tk-) cell line L-α2C, SEM and n in lines below) is recorded as 7.70. The “pKi alpha-2 2b” value at α2B receptor ([3H]rauwolscine, LM(tk-) cell line L-NGC-α2B, SEM and n in lines below) is reported as 5.64. For the same compound, the “pKi alpha-1 1b” value in test [1] (cloned human receptor in LM(tk-) cell membranes, SEM and n in lines below) is reported as 5.88.

With `CC1=C(C(N)=O)C(c2ccc([N+](=O)[O-])cc2)C(C(=O)NCCCN2CCC(C(=O)OCCC#N)(c3ccccc3)CC2)=CN1C` (stereo not shown) [Example 209, 5-Carboxamido-3-{N-[3-(4-(2-cyanoethoxycarbonyl)-4-phenylpiperidin-1-yl)propyl]}carboxamido-1,4-dihydro-1,6-dimethyl-4-(4-nitrophenyl) pyridine], the “PKi alpha-2 2a” value at α2A receptor (setting [12]) was found to be 5.78. Further, the “PKi alpha-2 2c” value at α2C receptor (setting [12]) turned out to be 5.70. Moreover, at α2B receptor (setting [12]), the “PKi alpha-2 2b” value came out at 6.46. The “PKi alpha-1 1b” value in test [1] (cloned human receptor, LM(tk-) cell membranes, mean) was 5.44.

The values are drawn from patent US6608086B2, “Dihydropyridines and new uses thereof” (Synaptic Pharmaceutical Corporation, priority 1993, dated 2003).
